Data published in PubChem BioAssay (NCI).
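Five concentrations, 48 hours, 96-well plates. GI50: concentration for 50% inhibition of growth. TGI is the concentration that stops growth completely.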

What was measured:
Assay in all cases: DTP human tumour cell line panel, 48 h
OVCAR-8 ovarian = tested on: OVCAR-8 ovarian
HOP-62 NSCLC = tested on: HOP-62 NSCLC
COLO 205 colon = tested on: COLO 205 colon
HCT-15 colon = tested on: HCT-15 colon
NCI-H23 lung = tested on: NCI-H23 lung
A549 NSCLC = tested on: A549 NSCLC
SNB-19 CNS = tested on: SNB-19 CNS
ACHN renal = tested on: ACHN renal
EKVX NSCLC = tested on: EKVX NSCLC
SK-MEL-2 melanoma = tested on: SK-MEL-2 melanoma
MALME-3M melanoma = tested on: MALME-3M melanoma
KM12 colon = tested on: KM12 colon
SNB-75 CNS = tested on: SNB-75 CNS
IGROV1 ovarian = tested on: IGROV1 ovarian
K-562 leukemia = tested on: K-562 leukemia
A498 renal = tested on: A498 renal
MCF7 breast = tested on: MCF7 breast
DU-145 prostate = tested on: DU-145 prostate
CCRF-CEM leukemia = tested on: CCRF-CEM leukemia
SW-620 colon = tested on: SW-620 colon
OVCAR-3 ovarian = tested on: OVCAR-3 ovarian
OVCAR-5 ovarian = tested on: OVCAR-5 ovarian
HT29 colon = tested on: HT29 colon
NCI-H522 lung = tested on: NCI-H522 lung
M14 melanoma = tested on: M14 melanoma
SF-539 CNS = tested on: SF-539 CNS
U251 CNS = tested on: U251 CNS
786-0 renal = tested on: 786-0 renal
MOLT-4 leukemia = tested on: MOLT-4 leukemia
CAKI-1 renal = tested on: CAKI-1 renal
NCI/ADR-RES ovarian = tested on: NCI/ADR-RES ovarian
SK-MEL-5 melanoma = tested on: SK-MEL-5 melanoma
SN12C renal = tested on: SN12C renal
UO-31 renal = tested on: UO-31 renal
SF-268 CNS = tested on: SF-268 CNS
SF-295 CNS = tested on: SF-295 CNS
SK-MEL-28 melanoma = tested on: SK-MEL-28 melanoma
SK-OV-3 ovarian = tested on: SK-OV-3 ovarian
LOX IMVI melanoma = tested on: LOX IMVI melanoma
NCI-H460 lung = tested on: NCI-H460 lung
RXF 393 renal = tested on: RXF 393 renal
HCC-2998 colon = tested on: HCC-2998 colon
BT-549 breast = tested on: BT-549 breast
T-47D breast = tested on: T-47D breast
UACC-257 melanoma = tested on: UACC-257 melanoma
NCI-H226 lung = tested on: NCI-H226 lung
SR leukemia = tested on: SR leukemia
HS 578T breast = tested on: HS 578T breast
PC-3 prostate = tested on: PC-3 prostate
OVCAR-4 ovarian = tested on: OVCAR-4 ovarian
RPMI-8226 leukemia = tested on: RPMI-8226 leukemia
HL-60(TB) leukemia = tested on: HL-60(TB) leukemia
TK-10 renal = tested on: TK-10 renal
UACC-62 melanoma = tested on: UACC-62 melanoma
MDA-MB-435 = tested on: MDA-MB-435
HCT-116 colon = tested on: HCT-116 colon
MDA-MB-231 breast = tested on: MDA-MB-231 breast
HOP-92 NSCLC = tested on: HOP-92 NSCLC

## C#CCC(Cc1cnc2nc(N)nc(N)c2n1)c1ccc(C(=O)N[C@@H](CCC(=O)O)C(=O)O)cc1 (stereo partly specified)
OVCAR-8 ovarian
  GI50: < 0.01 µM
  TGI: > 100 µM
HOP-62 NSCLC
  GI50: < 0.01 µM
  TGI: > 100 µM
COLO 205 colon
  GI50: < 0.0159 µM
  TGI: > 100 µM
HCT-15 colon
  GI50: < 0.01 µM
  TGI: > 100 µM
NCI-H23 lung
  GI50: < 0.0174 µM
  TGI: > 100 µM
A549 NSCLC
  GI50: < 0.01 µM
  TGI: > 100 µM
SNB-19 CNS
  GI50: < 0.0131 µM
  TGI: > 100 µM
ACHN renal
  GI50: < 0.01 µM
  TGI: > 100 µM
EKVX NSCLC
  TGI: > 100 µM
SK-MEL-2 melanoma
  GI50: > 100 µM
  TGI: > 100 µM
MALME-3M melanoma
  GI50: > 44 µM
  TGI: > 100 µM
KM12 colon
  GI50: < 0.01 µM
  TGI: > 100 µM
SNB-75 CNS
  GI50: < 0.0502 µM
  TGI: > 100 µM
IGROV1 ovarian
  GI50: < 0.01 µM
  TGI: > 100 µM
K-562 leukemia
  GI50: < 0.01 µM
  TGI: > 100 µM
A498 renal
  GI50: > 100 µM
  TGI: > 100 µM
MCF7 breast
  GI50: < 0.01 µM
  TGI: > 100 µM
DU-145 prostate
  GI50: < 0.01 µM
  TGI: > 100 µM
CCRF-CEM leukemia
  GI50: < 0.01 µM
  TGI: > 100 µM
SW-620 colon
  GI50: < 0.01 µM
  TGI: > 100 µM
OVCAR-3 ovarian
  GI50: < 0.0135 µM
  TGI: > 100 µM
OVCAR-5 ovarian
  GI50: < 0.01 µM
  TGI: > 100 µM
HT29 colon
  GI50: < 0.01 µM
  TGI: > 100 µM
NCI-H522 lung
  GI50: < 0.01 µM
  TGI: > 100 µM
M14 melanoma
  GI50: < 0.01 µM
  TGI: > 100 µM
SF-539 CNS
  GI50: < 0.01 µM
  TGI: > 100 µM
U251 CNS
  GI50: < 0.01 µM
  TGI: > 100 µM
786-0 renal
  GI50: < 0.01 µM
  TGI: > 100 µM
MOLT-4 leukemia
  GI50: < 0.01 µM
  TGI: > 100 µM
CAKI-1 renal
  GI50: < 0.01 µM
  TGI: > 100 µM
NCI/ADR-RES ovarian
  GI50: < 0.01 µM
  TGI: > 100 µM
SK-MEL-5 melanoma
  GI50: < 0.01 µM
  TGI: > 100 µM
SN12C renal
  GI50: < 0.01 µM
  TGI: > 100 µM
UO-31 renal
  GI50: < 0.01 µM
  TGI: > 100 µM
SF-268 CNS
  GI50: < 0.01 µM
  TGI: > 100 µM
SF-295 CNS
  GI50: < 0.01 µM
  TGI: > 100 µM
SK-MEL-28 melanoma
  GI50: 0.0901 µM
  TGI: > 100 µM
SK-OV-3 ovarian
  GI50: < 0.01 µM
  TGI: > 100 µM
LOX IMVI melanoma
  GI50: < 0.01 µM
  TGI: > 100 µM
NCI-H460 lung
  GI50: < 0.01 µM
  TGI: > 100 µM
RXF 393 renal
  GI50: < 0.01 µM
  TGI: > 100 µM
HCC-2998 colon
  GI50: 0.0103 µM
  TGI: > 100 µM
BT-549 breast
  GI50: > 100 µM
  TGI: > 100 µM
T-47D breast
  GI50: > 100 µM
  TGI: > 100 µM
UACC-257 melanoma
  GI50: 0.0243 µM
  TGI: > 100 µM
NCI-H226 lung
  GI50: < 0.01 µM
  TGI: > 100 µM
SR leukemia
  GI50: < 0.01 µM
  TGI: > 100 µM
HS 578T breast
  GI50: > 100 µM
  TGI: > 100 µM
PC-3 prostate
  GI50: < 0.01 µM
  TGI: > 100 µM
OVCAR-4 ovarian
  GI50: 0.975 µM
  TGI: > 100 µM
RPMI-8226 leukemia
  GI50: < 0.01 µM
  TGI: > 100 µM
HL-60(TB) leukemia
  GI50: < 0.01 µM
  TGI: > 100 µM
TK-10 renal
  GI50: < 0.01 µM
  TGI: > 100 µM
UACC-62 melanoma
  GI50: < 0.01 µM
  TGI: > 100 µM
MDA-MB-435
  GI50: < 0.01 µM
  TGI: > 100 µM
HCT-116 colon
  GI50: < 0.01 µM
  TGI: > 100 µM

## O=C1CCCCCCCC/C=C\CC(c2ccco2)O1 (stereo unspecified)
OVCAR-8 ovarian
  GI50: 33.4 µM
  TGI: > 100 µM
HOP-62 NSCLC
  GI50: 15.6 µM
  TGI: 62.3 µM
COLO 205 colon
  GI50: 31.6 µM
  TGI: > 100 µM
HCT-15 colon
  GI50: 23.5 µM
  TGI: 77.9 µM
NCI-H23 lung
  GI50: 35.8 µM
  TGI: > 100 µM
A549 NSCLC
  GI50: 46 µM
  TGI: > 100 µM
SNB-19 CNS
  GI50: 13.1 µM
  TGI: 40.3 µM
ACHN renal
  GI50: 23.9 µM
  TGI: 82.4 µM
EKVX NSCLC
  GI50: 26.7 µM
  TGI: 75.7 µM
SK-MEL-2 melanoma
  GI50: 21.6 µM
  TGI: 58.4 µM
MALME-3M melanoma
  GI50: 26.3 µM
  TGI: > 100 µM
KM12 colon
  GI50: 28.5 µM
  TGI: > 100 µM
SNB-75 CNS
  GI50: 21.2 µM
  TGI: 61.8 µM
IGROV1 ovarian
  GI50: 28.1 µM
  TGI: > 100 µM
K-562 leukemia
  GI50: 23.5 µM
  TGI: 73.8 µM
MCF7 breast
  GI50: 4.81 µM
  TGI: > 100 µM
DU-145 prostate
  GI50: 44.8 µM
  TGI: > 100 µM
CCRF-CEM leukemia
  GI50: 36 µM
  TGI: > 100 µM
SW-620 colon
  GI50: 41.5 µM
  TGI: > 100 µM
OVCAR-3 ovarian
  GI50: 32.2 µM
  TGI: > 100 µM
OVCAR-5 ovarian
  GI50: 22.5 µM
  TGI: > 100 µM
HT29 colon
  GI50: 27 µM
  TGI: 99.5 µM
NCI-H522 lung
  GI50: 18.1 µM
  TGI: 47.2 µM
M14 melanoma
  GI50: 24.6 µM
  TGI: 70.5 µM
SF-539 CNS
  GI50: 56 µM
  TGI: > 100 µM
U251 CNS
  GI50: 19.5 µM
  TGI: 48.2 µM
786-0 renal
  GI50: 21.4 µM
  TGI: 70.3 µM
MOLT-4 leukemia
  GI50: 20.8 µM
  TGI: 65.7 µM
CAKI-1 renal
  GI50: 49.4 µM
  TGI: > 100 µM
NCI/ADR-RES ovarian
  GI50: 34.4 µM
  TGI: > 100 µM
SK-MEL-5 melanoma
  GI50: 18.9 µM
  TGI: 36.9 µM
SN12C renal
  GI50: 22.2 µM
  TGI: 69.9 µM
UO-31 renal
  GI50: 21.5 µM
  TGI: 39.9 µM
SF-268 CNS
  GI50: 30.8 µM
  TGI: > 100 µM
SF-295 CNS
  GI50: 25.4 µM
  TGI: > 100 µM
SK-MEL-28 melanoma
  GI50: 31.1 µM
  TGI: > 100 µM
MDA-MB-231 breast
  GI50: 14.6 µM
  TGI: 41.9 µM
SK-OV-3 ovarian
  GI50: 32.7 µM
  TGI: > 100 µM
LOX IMVI melanoma
  GI50: 32.3 µM
  TGI: 51.6 µM
NCI-H460 lung
  GI50: 76.5 µM
  TGI: > 100 µM
RXF 393 renal
  GI50: 21.5 µM
  TGI: 65.2 µM
HCC-2998 colon
  GI50: > 100 µM
  TGI: > 100 µM
BT-549 breast
  GI50: 28.6 µM
  TGI: > 100 µM
T-47D breast
  GI50: 13.1 µM
  TGI: 57 µM
UACC-257 melanoma
  GI50: 24.2 µM
  TGI: 72.5 µM
NCI-H226 lung
  GI50: 21 µM
  TGI: 64.1 µM
HS 578T breast
  GI50: 32.4 µM
  TGI: > 100 µM
PC-3 prostate
  GI50: 36.3 µM
  TGI: > 100 µM
RPMI-8226 leukemia
  GI50: 43.2 µM
  TGI: > 100 µM
HL-60(TB) leukemia
  GI50: 12 µM
  TGI: 31 µM
TK-10 renal
  GI50: > 100 µM
  TGI: > 100 µM
HOP-92 NSCLC
  GI50: 17 µM
  TGI: 94.9 µM
UACC-62 melanoma
  GI50: 14.6 µM
  TGI: 68.9 µM
MDA-MB-435
  GI50: 51.5 µM
  TGI: > 100 µM
HCT-116 colon
  GI50: 15.1 µM
  TGI: 29.5 µM
